Measured values published in article PMC12446476 (Nature Communications, 2025).
≈ marks a conversion by molar mass, not a printed value. Where two headings read alike, the source gives them in different places.

Tested on: N. gonorrhoeae
Test: MIC determination, Etest
Format: cell-based, Neisseria gonorrhoeae
Settings: for MIC: Neisseria gonorrhoeae
Excerpt: The 2024 WHO N. gonorrhoeae reference strains were used for quality control. Only whole MIC doubling dilutions are reported. Clinical breakpoints or the epidemiological cutoff (ECOFF, to indicate azithromycin resistance) from EUCAST (v14.0, https://www.eucast.org/clinical_breakpoints) were used to classify isolates as antimicrobial susceptible or resistant. […] Two times the standard inoculum defined by CLSI was used to establish consistent growth in untreated control samples for some strains. In vitro time-kill assays were performed according to CLSI guidelines[65] using Columbia Broth (BD Difco) supplemented with 1% IsoVitaleX Enrichment (BD). Viable bacterial counts were generated by plating 10-fold serially diluted samples on GC agar plates containing 1% IsoVitaleX Enrichment (BD).

## CC[C@H]1OC(=O)[C@H](C)[C@@H](O[C@H]2C[C@@](C)(OC)[C@@H](O)[C@H](C)O2)[C@H](C)[C@@H](O[C@@H]2O[C@H](C)C[C@H](N(C)C)[C@H]2O)[C@](C)(O)C[C@@H](C)CN(C)[C@H](C)[C@@H](O)[C@]1(C)O [Azithromycin]
100 contemporary clinical N. gonorrhoeae isolates, EUCAST
  percent of isolates resistant: 2%
WHO F, Etest, read-out: MIC
  MIC: 0.25 µg/mL (≈ 0.334 µM)
WHO H, Etest, read-out: MIC
  MIC: 0.25 µg/mL (≈ 0.334 µM)
WHO K, Etest, read-out: MIC
  MIC: 0.5 µg/mL (≈ 0.668 µM)
WHO L, Etest, read-out: MIC
  MIC: 1 µg/mL (≈ 1.34 µM)
WHO M, Etest, read-out: MIC
  MIC: 0.5 µg/mL (≈ 0.668 µM)
WHO O, Etest, read-out: MIC
  MIC: 0.5 µg/mL (≈ 0.668 µM)
WHO P, Etest, read-out: MIC
  MIC: 4 µg/mL (≈ 5.34 µM)
WHO Q, Etest, read-out: MIC
  MIC: < 256 µg/mL
WHO R, Etest, read-out: MIC
  MIC: 0.5 µg/mL (≈ 0.668 µM)
WHO S2, Etest, read-out: MIC
  MIC: 2 µg/mL (≈ 2.67 µM)
WHO U, Etest, read-out: MIC
  MIC: 4 µg/mL (≈ 5.34 µM)
WHO V, Etest, read-out: MIC
  MIC: > 256 µg/mL
WHO X, Etest, read-out: MIC
  MIC: 0.5 µg/mL (≈ 0.668 µM)
WHO Y, Etest, read-out: MIC
  MIC: 1 µg/mL (≈ 1.34 µM)
WHO Z, Etest, read-out: MIC
  MIC: 1 µg/mL (≈ 1.34 µM)
Comparator antibiotics, clinical N. gonorrhoeae isolate 1, Sweden 2023, read-out: Minimum inhibitory concentration
  MIC: 0.25 µg/mL (≈ 0.334 µM)
Comparator antibiotics, clinical N. gonorrhoeae isolate 2, Sweden 2023, read-out: Minimum inhibitory concentration
  MIC: 0.125 µg/mL (≈ 0.167 µM)
Comparator antibiotics, clinical N. gonorrhoeae isolate 3, Sweden 2023, read-out: Minimum inhibitory concentration
  MIC: 0.25 µg/mL (≈ 0.334 µM)
Comparator antibiotics, clinical N. gonorrhoeae isolate 4, Sweden 2023, read-out: Minimum inhibitory concentration
  MIC: 0.5 µg/mL (≈ 0.668 µM)
Comparator antibiotics, clinical N. gonorrhoeae isolate 5, Sweden 2023, read-out: Minimum inhibitory concentration
  MIC: 0.064 µg/mL (≈ 0.0854 µM)
Comparator antibiotics, clinical N. gonorrhoeae isolate 6, Sweden 2023, read-out: Minimum inhibitory concentration
  MIC: 0.064 µg/mL (≈ 0.0854 µM)
Comparator antibiotics, clinical N. gonorrhoeae isolate 7, Sweden 2023, read-out: Minimum inhibitory concentration
  MIC: 0.125 µg/mL (≈ 0.167 µM)
Comparator antibiotics, clinical N. gonorrhoeae isolate 8, Sweden 2023, read-out: Minimum inhibitory concentration
  MIC: 0.064 µg/mL (≈ 0.0854 µM)
Comparator antibiotics, clinical N. gonorrhoeae isolate 9, Sweden 2023, read-out: Minimum inhibitory concentration
  MIC: 0.25 µg/mL (≈ 0.334 µM)
Comparator antibiotics, clinical N. gonorrhoeae isolate 10, Sweden 2023, read-out: Minimum inhibitory concentration
  MIC: 0.125 µg/mL (≈ 0.167 µM)
Comparator antibiotics, clinical N. gonorrhoeae isolate 11, Sweden 2023, read-out: Minimum inhibitory concentration
  MIC: 0.25 µg/mL (≈ 0.334 µM)
Comparator antibiotics, clinical N. gonorrhoeae isolate 12, Sweden 2023, read-out: Minimum inhibitory concentration
  MIC: 0.125 µg/mL (≈ 0.167 µM)
Comparator antibiotics, clinical N. gonorrhoeae isolate 13, Sweden 2023, read-out: Minimum inhibitory concentration
  MIC: 0.064 µg/mL (≈ 0.0854 µM)
Comparator antibiotics, clinical N. gonorrhoeae isolate 14, Sweden 2023, read-out: Minimum inhibitory concentration
  MIC: 0.064 µg/mL (≈ 0.0854 µM)
Comparator antibiotics, clinical N. gonorrhoeae isolate 15, Sweden 2023, read-out: Minimum inhibitory concentration
  MIC: 0.25 µg/mL (≈ 0.334 µM)
Comparator antibiotics, clinical N. gonorrhoeae isolate 16, Sweden 2023, read-out: Minimum inhibitory concentration
  MIC: 0.25 µg/mL (≈ 0.334 µM)
Comparator antibiotics, clinical N. gonorrhoeae isolate 17, Sweden 2023, read-out: Minimum inhibitory concentration
  MIC: 0.25 µg/mL (≈ 0.334 µM)
Comparator antibiotics, clinical N. gonorrhoeae isolate 18, Sweden 2023, read-out: Minimum inhibitory concentration
  MIC: 0.032 µg/mL (≈ 0.0427 µM)
Comparator antibiotics, clinical N. gonorrhoeae isolate 19, Sweden 2023, read-out: Minimum inhibitory concentration
  MIC: 0.25 µg/mL (≈ 0.334 µM)
Comparator antibiotics, clinical N. gonorrhoeae isolate 20, Sweden 2023, read-out: Minimum inhibitory concentration
  MIC: 0.5 µg/mL (≈ 0.668 µM)
Comparator antibiotics, clinical N. gonorrhoeae isolate 21, Sweden 2023, read-out: Minimum inhibitory concentration
  MIC: 0.5 µg/mL (≈ 0.668 µM)
Comparator antibiotics, clinical N. gonorrhoeae isolate 22, Sweden 2023, read-out: Minimum inhibitory concentration
  MIC: 0.125 µg/mL (≈ 0.167 µM)
Comparator antibiotics, clinical N. gonorrhoeae isolate 23, Sweden 2023, read-out: Minimum inhibitory concentration
  MIC: 0.125 µg/mL (≈ 0.167 µM)
Comparator antibiotics, clinical N. gonorrhoeae isolate 24, Sweden 2023, read-out: Minimum inhibitory concentration
  MIC: 0.25 µg/mL (≈ 0.334 µM)
Comparator antibiotics, clinical N. gonorrhoeae isolate 25, Sweden 2023, read-out: Minimum inhibitory concentration
  MIC: 0.064 µg/mL (≈ 0.0854 µM)
Comparator antibiotics, clinical N. gonorrhoeae isolate 26, Sweden 2023, read-out: Minimum inhibitory concentration
  MIC: 0.25 µg/mL (≈ 0.334 µM)
Comparator antibiotics, clinical N. gonorrhoeae isolate 27, Sweden 2023, read-out: Minimum inhibitory concentration
  MIC: 0.125 µg/mL (≈ 0.167 µM)
Comparator antibiotics, clinical N. gonorrhoeae isolate 28, Sweden 2023, read-out: Minimum inhibitory concentration
  MIC: 0.016 µg/mL (≈ 0.0214 µM)
Comparator antibiotics, clinical N. gonorrhoeae isolate 29, Sweden 2023, read-out: Minimum inhibitory concentration
  MIC: 0.25 µg/mL (≈ 0.334 µM)
Comparator antibiotics, clinical N. gonorrhoeae isolate 30, Sweden 2023, read-out: Minimum inhibitory concentration
  MIC: 0.125 µg/mL (≈ 0.167 µM)
Comparator antibiotics, clinical N. gonorrhoeae isolate 31, Sweden 2023, read-out: Minimum inhibitory concentration
  MIC: 0.064 µg/mL (≈ 0.0854 µM)
Comparator antibiotics, clinical N. gonorrhoeae isolate 32, Sweden 2023, read-out: Minimum inhibitory concentration
  MIC: 0.064 µg/mL (≈ 0.0854 µM)
Comparator antibiotics, clinical N. gonorrhoeae isolate 33, Sweden 2023, read-out: Minimum inhibitory concentration
  MIC: 0.125 µg/mL (≈ 0.167 µM)
Comparator antibiotics, clinical N. gonorrhoeae isolate 34, Sweden 2023, read-out: Minimum inhibitory concentration
  MIC: 0.125 µg/mL (≈ 0.167 µM)
Comparator antibiotics, clinical N. gonorrhoeae isolate 35, Sweden 2023, read-out: Minimum inhibitory concentration
  MIC: 0.25 µg/mL (≈ 0.334 µM)
Comparator antibiotics, clinical N. gonorrhoeae isolate 36, Sweden 2023, read-out: Minimum inhibitory concentration
  MIC: 0.5 µg/mL (≈ 0.668 µM)
Comparator antibiotics, clinical N. gonorrhoeae isolate 37, Sweden 2023, read-out: Minimum inhibitory concentration
  MIC: 0.125 µg/mL (≈ 0.167 µM)
Comparator antibiotics, clinical N. gonorrhoeae isolate 38, Sweden 2023, read-out: Minimum inhibitory concentration
  MIC: 0.032 µg/mL (≈ 0.0427 µM)
Comparator antibiotics, clinical N. gonorrhoeae isolate 39, Sweden 2023, read-out: Minimum inhibitory concentration
  MIC: 0.125 µg/mL (≈ 0.167 µM)
Comparator antibiotics, clinical N. gonorrhoeae isolate 40, Sweden 2023, read-out: Minimum inhibitory concentration
  MIC: 0.064 µg/mL (≈ 0.0854 µM)
Comparator antibiotics, clinical N. gonorrhoeae isolate 41, Sweden 2023, read-out: Minimum inhibitory concentration
  MIC: 0.25 µg/mL (≈ 0.334 µM)
Comparator antibiotics, clinical N. gonorrhoeae isolate 42, Sweden 2023, read-out: Minimum inhibitory concentration
  MIC: 0.032 µg/mL (≈ 0.0427 µM)
Comparator antibiotics, clinical N. gonorrhoeae isolate 43, Sweden 2023, read-out: Minimum inhibitory concentration
  MIC: 0.5 µg/mL (≈ 0.668 µM)
Comparator antibiotics, clinical N. gonorrhoeae isolate 44, Sweden 2023, read-out: Minimum inhibitory concentration
  MIC: 0.5 µg/mL (≈ 0.668 µM)
Comparator antibiotics, clinical N. gonorrhoeae isolate 45, Sweden 2023, read-out: Minimum inhibitory concentration
  MIC: 0.064 µg/mL (≈ 0.0854 µM)
Comparator antibiotics, clinical N. gonorrhoeae isolate 46, Sweden 2023, read-out: Minimum inhibitory concentration
  MIC: 0.032 µg/mL (≈ 0.0427 µM)
Comparator antibiotics, clinical N. gonorrhoeae isolate 47, Sweden 2023, read-out: Minimum inhibitory concentration
  MIC: 0.125 µg/mL (≈ 0.167 µM)
Comparator antibiotics, clinical N. gonorrhoeae isolate 48, Sweden 2023, read-out: Minimum inhibitory concentration
  MIC: 0.125 µg/mL (≈ 0.167 µM)
Comparator antibiotics, clinical N. gonorrhoeae isolate 49, Sweden 2023, read-out: Minimum inhibitory concentration
  MIC: 0.5 µg/mL (≈ 0.668 µM)
